Source: patent publication US12441689B2 (EpiVario, Inc., priority 2019, dated 2025)

Each compound was assayed against human ACSS2 protein (Homo sapiens (Human), UniProt Q9NR19) (assay: ACSS2 Cell-Free Activity Assay (Cell-Free IC50)). Details: 10 nM human ACSS2 protein, 90 minutes at 37 C, pyrophosphatase-coupled, Biomol Green absorbance at 620 nm; read-out: ACSS2 Biochemical IC50.
Description: ACSS2 Cell-Free Activity Assay (Cell-Free IC50)

human ACSS2 protein, sequence (Q9NR19 whole entry): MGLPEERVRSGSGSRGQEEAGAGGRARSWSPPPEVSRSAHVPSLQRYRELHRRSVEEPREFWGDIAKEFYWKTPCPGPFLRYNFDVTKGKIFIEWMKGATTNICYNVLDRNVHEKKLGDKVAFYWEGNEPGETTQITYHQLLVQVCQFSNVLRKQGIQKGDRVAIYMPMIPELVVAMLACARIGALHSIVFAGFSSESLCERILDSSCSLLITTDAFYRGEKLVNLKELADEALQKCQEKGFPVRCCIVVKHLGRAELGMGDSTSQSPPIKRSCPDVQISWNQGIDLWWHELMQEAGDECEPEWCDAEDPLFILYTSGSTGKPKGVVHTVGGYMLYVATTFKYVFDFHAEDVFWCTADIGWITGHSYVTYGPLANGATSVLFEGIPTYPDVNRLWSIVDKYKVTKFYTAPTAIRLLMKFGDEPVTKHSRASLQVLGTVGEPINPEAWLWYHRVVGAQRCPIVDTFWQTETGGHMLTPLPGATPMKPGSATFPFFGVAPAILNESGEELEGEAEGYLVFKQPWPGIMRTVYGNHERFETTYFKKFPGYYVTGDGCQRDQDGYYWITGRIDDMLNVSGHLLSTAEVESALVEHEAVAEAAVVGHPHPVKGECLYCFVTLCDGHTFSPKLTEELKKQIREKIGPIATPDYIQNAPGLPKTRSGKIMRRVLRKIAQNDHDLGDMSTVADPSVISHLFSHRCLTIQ

Row | IC50 | Structure (SMILES)
1 | > 100 nM | COc1ccc(-c2nc(C(=O)Nc3cccc(C(C)(F)F)c3)c(C)o2)cc1 [Compound 153, N-[3-(1,1-difluoroethyl)phenyl]-2-(4-methoxyphenyl)-5-methyl-oxazole-4-carboxamide]
2 | 1 to 100 nM | Cc1nn(-c2ccc(OC(F)F)cc2)c(N(C)C)c1C(=O)Nc1cccc(C(C)(F)F)c1 [Compound 168, N-(3-(1,1-difluoroethyl)phenyl)-1-(4-(difluoromethoxy)phenyl)-5-(dimethylamino)-3-methyl-1H-pyrazole-4-carboxamide]
3 | > 100 nM | CCC(F)(F)c1cccc(NC(=O)c2cc(C)nc(-c3cc(C)cc(-c4ccccc4)c3)n2)c1 [Compound 226, N-(3-(1,1-difluoropropyl)phenyl)-6-methyl-2-(5-methyl-[1,1′-biphenyl]-3-yl)pyrimidine-4-carboxamide]
4 | > 100 nM | CCC(F)(F)c1cccc(NC(=O)c2nc(-c3ccc(OC(F)F)cc3)cnc2C)c1 [Compound 125, 6-(4-(difluoromethoxy)phenyl)-N-(3-(1,1-difluoropropyl)phenyl)-3-methylpyrazine-2-carboxamide]
5 | > 100 nM | CCC(F)(F)c1cccc(NC(=O)c2oc(-c3ccc(OC(F)F)c(-c4ccccn4)c3)nc2C)c1 [Compound 214, 2-(4-(difluoromethoxy)-3-(pyridin-2-yl)phenyl)-N-(3-(1,1-difluoropropyl)phenyl)-4-methyloxazole-5-carboxamide]
6 | > 100 nM | CC1=NN(c2ccc(OC(F)(F)F)cc2)C(=O)C1(F)C(=O)Nc1cccc(C(C)(F)F)c1 (centres unmarked) [Compound 203, N-(3-(1,1-difluoroethyl)phenyl)-4-fluoro-3-methyl-5-oxo-1-(4-(trifluoromethoxy)phenyl)-4,5-dihydro-1H-pyrazole-4-carboxamide]
7 | > 100 nM | CCC(F)(F)c1cccc(NC(=O)c2c(C)oc(-c3ccc(OC)c(-c4ncccc4C)c3)[n+]2[O-])c1 [Compound 251, 4-((3-(1,1-difluoropropyl)phenyl)carbamoyl)-2-(4-methoxy-3-(3-methylpyridin-2-yl)phenyl)-5-methyloxazole 3-oxide]
8 | > 100 nM | CCC(F)(F)c1cccc(NC(=O)c2ncc(-c3ccc(OC(F)F)cc3)nc2C)c1 [Compound 132, 5-(4-(difluoromethoxy)phenyl)-N-(3-(1,1-difluoropropyl)phenyl)-3-methylpyrazine-2-carboxamide]
9 | > 100 nM | CCCC1(C(=O)Nc2cccc(C(C)(F)F)c2)C(=O)N(c2ccc(OC(F)F)cc2)N=C1C (centres unmarked) [Compound 158, N-(3-(1,1-difluoroethyl)phenyl)-1-(4-(difluoromethoxy)phenyl)-3-methyl-5-oxo-4-propyl-4,5-dihydro-1H-pyrazole-4-carboxamide]
10 | > 100 nM | CCC(F)(F)c1cccc(NC(=O)c2nc(C)c(-c3ccc(OC(F)F)cc3)nc2C)c1 [Compound 105, 5-(4-(difluoromethoxy)phenyl)-N-(3-(1,1-difluoropropyl)phenyl)-3,6-dimethylpyrazine-2-carboxamide]
11 | > 100 nM | CCC(F)(F)c1cccc(NC(=O)c2n[nH]c(-c3ccc(OC)cc3)c2Br)c1 [Compound 233]
12 | > 100 nM | CCc1nn(-c2ccc(OC(F)F)cc2)c(C)c1C(=O)Nc1cccc(C(C)(F)F)c1 [Compound 155, N-(3-(1,1-difluoroethyl)phenyl)-1-(4-(difluoromethoxy)phenyl)-3-ethyl-5-methyl-1H-pyrazole-4-carboxamide]
13 | > 100 nM | Cc1ncc(-c2ccc(OC(F)F)cc2)nc1C(=O)Nc1cccc(C(C)(F)F)c1 [Compound 126, N-(3-(1,1-difluoroethyl)phenyl)-6-(4-(difluoromethoxy)phenyl)-3-methylpyrazine-2-carboxamide]
14 | < 1 nM | CCCc1cc(N2N=C(C)C(C(=O)Nc3cccc(C(C)(F)F)c3)C2=O)cc(-c2ccccc2)c1OC (centres unmarked) [Compound 161, N-(3-(1,1-difluoroethyl)phenyl)-1-(6-methoxy-5-propyl-[1,1′-biphenyl]-3-yl)-3-methyl-5-oxo-4,5-dihydro-1H-pyrazole-4-carboxamide]
15 | < 1 nM | CCC(F)(F)c1cccc(NC(=O)C2(Cl)C(=O)N(c3ccc(OC(F)F)cc3)N=C2C)c1 (centres unmarked) [Compound 163, 4-chloro-1-(4-(difluoromethoxy)phenyl)-N-(3-(1,1-difluoropropyl)phenyl)-3-methyl-5-oxo-4,5-dihydro-1H-pyrazole-4-carboxamide]
16 | > 100 nM | CCC(F)(F)c1cccc(NC(=O)c2nc(-c3ccc(OC(F)F)c(-c4ccccc4)c3)[nH]c2C)c1 [Compound 218, 2-(6-(difluoromethoxy)-[1,1′-biphenyl]-3-yl)-N-(3-(1,1-difluoropropyl)phenyl)-5-methyl-1 H-imidazole-4-carboxamide]
17 | > 100 nM | CCC(F)(F)c1cccc(NC(=O)c2cc(C)nc(-c3ccc(OC(F)F)cc3)c2)c1 [Compound 102, 2-[4-(difluoromethoxy)phenyl]-N-[3-(1,1-difluoropropyl)phenyl]-6-methyl-pyridine-4-carboxamide]
18 | 1 to 100 nM | CCC(F)(F)c1cccc(NC(=O)C2C(=O)N(c3cc(Cc4ccc(Cl)cc4)c(OC)c(-c4ccccc4)c3)N=C2C)c1 (centres unmarked) [Compound 236, 1-(5-(4-chlorobenzyl)-6-methoxy-[1,1′-biphenyl]-3-yl)-N-(3-(1,1-difluoropropyl)phenyl)-3-methyl-5-oxo-4,5-dihydro-1H-pyrazole-4-carboxamide]
19 | < 1 nM | CCC(F)(F)c1cccc(NC(=O)c2c(C)[nH]c(-c3ccc(OC)c(-c4ncccc4C)c3)[n+]2[O-])c1 [Compound 249, 4-((3-(1,1-difluoropropyl)phenyl)carbamoyl)-2-(4-methoxy-3-(3-methylpyridin-2-yl)phenyl)-5-methyl-1H-imidazole 3-oxide]
20 | > 100 nM | CC1=NN(c2ccc(OC(F)F)cc2)C(=O)C1(C)NC(=O)c1cccc(C(C)(F)F)c1 (centres unmarked) [Compound 198, 3-(1,1-difluoroethyl)-N-(1-(4-(difluoromethoxy)phenyl)-3,4-dimethyl-5-oxo-4,5-dihydro-1H-pyrazol-4-yl)benzamide]
21 | > 100 nM | CCC(F)(F)c1cccc(NC(=O)c2nc(C)c(-c3ccc(OC(F)F)c(-c4ccccc4)c3)nc2C)c1 [Compound 103, 5-(6-(difluoromethoxy)-[1,1′-biphenyl]-3-yl)-N-(3-(1,1-difluoropropyl)phenyl)-3,6-dimethylpyrazine-2-carboxamide]
22 | > 100 nM | CC1=NN(c2ccc(OC(F)F)cc2)C(=O)C1(C)C(=O)Nc1cccc(Cl)c1 (centres unmarked) [Compound 167, N-(3-chlorophenyl)-1-[4-(difluoromethoxy)phenyl]-3,4-dimethyl-5-oxo-pyrazole-4-carboxamide]
23 | 1 to 100 nM | COc1c(Cc2ccc(O)cc2)cc(N2N=C(C)C(C(=O)Nc3cccc(C(C)(F)F)c3)C2=O)cc1-c1ccccc1 (centres unmarked) [Compound 228, N-(3-(1,1-difluoroethyl)phenyl)-1-(5-(4-hydroxybenzyl)-6-methoxy-[1,1′-biphenyl]-3-yl)-3-methyl-5-oxo-4,5-dihydro-1H-pyrazole-4-carboxamide]
24 | < 1 nM | CC1=NN(c2ccc(OC(F)F)c(-c3ccncc3)c2)C(=O)C1(F)C(=O)Nc1cccc(C(C)(F)F)c1 (centres unmarked) [Compound 204, N-(3-(1,1-difluoroethyl)phenyl)-1-(4-(difluoromethoxy)-3-(pyridin-4-yl)phenyl)-4-fluoro-3-methyl-5-oxo-4,5-dihydro-1H-pyrazole-4-carboxamide]
25 | > 100 nM | Cc1nn(-c2ccc(OC(F)F)cc2)c(F)c1C(=O)Nc1cccc(C(C)(F)F)c1 [Compound 200, N-(3-(1,1-difluoroethyl)phenyl)-1-(4-(difluoromethoxy)phenyl)-5-fluoro-3-methyl-1H-pyrazole-4-carboxamide]
26 | > 100 nM | CCc1c(C(=O)Nc2cccc(C(C)(F)F)c2)c(C)nn1-c1ccc(OC(F)F)cc1 [Compound 156, N-(3-(1,1-difluoroethyl)phenyl)-1-(4-(difluoromethoxy)phenyl)-5-ethyl-3-methyl-1H-pyrazole-4-carboxamide]
27 | 1 to 100 nM | CC1=NN(c2ccc(OC(F)F)cc2)C(=O)C1C(=O)Nc1cccc(C(F)(F)C2CCC2)c1 (centres unmarked) [Compound 101, N-(3-(cyclobutyldifluoromethyl)phenyl)-1-(4-(difluoromethoxy)phenyl)-3-methyl-5-oxo-4,5-dihydro-1H-pyrazole-4-carboxamide]
28 | > 100 nM | Cc1oc(-c2ccc(OC(F)F)c(-c3ccccn3)c2)nc1C(=O)Nc1cccc(C(C)(F)F)c1 [Compound 258, N-(3-(1,1-difluoroethyl)phenyl)-2-(4-(difluoromethoxy)-3-(pyridin-2-yl)phenyl)-5-methyloxazole-4-carboxamide]
29 | > 100 nM | CCC(F)(F)c1cccc(NC(=O)c2n[nH]c(-c3ccc(OC)cc3)c2C(C)=O)c1 [Compound 232, 4-acetyl-N-(3-(1,1-difluoropropyl)phenyl)-5-(4-methoxyphenyl)-1 H-pyrazole-3-carboxamide]
30 | 1 to 100 nM | Cc1nn(-c2ccc(OC(F)F)c(-c3cccnc3)c2)cc1C(=O)Nc1cccc(C(C)(F)F)c1 [Compound 182, N-(3-(1,1-difluoroethyl)phenyl)-1-(4-(difluoromethoxy)-3-(pyridin-3-yl)phenyl)-3-methyl-1H-pyrazole-4-carboxamide]

Row | Structure (SMILES) | IC50
31 | Cc1nn(-c2ccc(OC(F)F)c(-c3cccnc3)c2)c(OC(=O)N2CCN(C(C)(C)CO)CC2)c1C(=O)Nc1cccc(C(C)(F)F)c1 [Compound 183, 4-((3-(1,1-difluoroethyl)phenyl)carbamoyl)-1-(4-(difluoromethoxy)-3-(pyridin-3-yl)phenyl)-3-methyl-1H-pyrazol-5-yl 4-(1-hydroxy-2-methylpropan-2-yl)piperazine-1-carboxylate] | > 100 nM
32 | Cc1nn(-c2ccc(OC(F)F)cc2)c(OC(=O)N2CCC(N3CCCCC3)CC2)c1C(=O)Nc1cccc(C(C)(F)F)c1 [Compound 189, 4-((3-(1,1-difluoroethyl)phenyl)carbamoyl)-1-(4-(difluoromethoxy)phenyl)-3-methyl-1H-pyrazol-5-yl [1,4′-bipiperidine]-1′-carboxylate] | 1 to 100 nM
